# Data: patent US20250241978A1, “PEPTIDE FOR PREVENTION OR TREATMENT OF COVID-19” (priority 2020, published 2025)
# Tested on: severe COVID-19 patients
# Test: Observation of seriously ill COVID-19 ICU patients treated with orally inhaled solnatide (Example 2)
# Protocol: Community patients with serious health conditions were admitted to a local hospital for examination. In some of these patients, COVID-19 was confirmed by positive testing for SARS-CoV-2 by nasopharyngeal swab and real-time RT-PCR.
# Following worsening of conditions, seriously ill COVID-19 patients were admitted to the ICU of the hospital.
# These patients were treated with placebo only in addition to standard critical care treatment and life support.
# During an observation period of 7 days, patient-centred clinical parameters which reflect the severity of COVID-19 were recorded.
# The SOFA score was used to track a patient's status during the stay in an intensive care unit (ICU) to determine the extent of the patient's organ function or rate of failure.
substance,measurement,setting,value
cyclo-CGQRETPEGAEAKPWYC [solnatide],mean SOFA score at end of treatment period,"COVID-19 ICU patients, orally inhaled solnatide twice daily plus standard critical care, after 7-day treatment period, FIG. 1",8
same,mean SOFA score at start of treatment period,"COVID-19 ICU patients, orally inhaled solnatide twice daily plus standard critical care, start of 7-day treatment, FIG. 1",12
same,"mean body temperature, change during treatment","COVID-19 ICU patients, orally inhaled solnatide twice daily, 7-day treatment period, elevated at initiation, FIG. 3",decreased
same,mean dynamic lung compliance at end of treatment period,"COVID-19 ICU patients, orally inhaled solnatide twice daily, after 7-day treatment period, FIG. 2",50 mL/cm H2O
same,mean dynamic lung compliance at start of treatment period,"COVID-19 ICU patients, orally inhaled solnatide twice daily, start of 7-day treatment, FIG. 2",approx. 35 mL/cm H2O
same,patients who died within 28 days after onset of COVID-19 symptoms,"severe COVID-19 patients treated with solnatide, comparator cohort: 3 patients died",none
